The values below come from PMC11428108 (Frontiers in Molecular Neuroscience, 2024).

Entries after “also recorded” stand apart in the source; their conditions may differ.

In assay [1] the target is T1, human (α3)2(β4)2α5 nAChRs (Homo sapiens, UniProt P30532+P30926+P32297).
T1 construct: expressed in transfected cells
Nature of the assay: FLEXstation membrane potential assay in HEK cells stably expressing (α3)2(β4)2α5 nAChRs. Conditions: SR9883 0.0005–10 μM. Type of assay: cell-based. The text has this:
(§1) Human embryonic kidney (HEK) cell lines stably expressing human (α4)2(β2)2β2/α4 (α4β2*) nAChRs, (α4)2(β2)2α5 nAChRs, (α4)2(β2)2β3 nAChRs, (α3)2(β4)2α3/β4 (α3β4*) nAChRs, (α3)2(β2)2α3/β2 (α3β2*) nAChRs, (α3)2(β4)2α5 nAChRs, or (α3)2(β2)2α5 nAChRs were maintained as described previously ([Wang et al., 2015]; [Kuryatov et al., 2005]; [Caligiuri et al., 2022]). The FLEXstation bench top scanning fluorometer from Molecular Devices was used to assay nAChR function in these cells, according to published protocols ([Wang et al., 2015]; [Kuryatov et al., 2005]). The membrane potential kit (Molecular Devices) was used according to the manufacturer’s protocols. Serial dilutions of SR9883 were manually added to the assay plate 15 min prior to recording. […] Potency and efficacy were calculated using the Hill equation as described previously ([Wang et al., 2015]).
(§2) Concentration-response curves of SR9883 actions in nAChR-expressing HEK cells and oocytes were fitted to the Hill equation using a nonlinear least squares curve fit method and efficacy and potency values were calculated as previously described ([Wang et al., 2015]). […] For the ICSS threshold experiment, percentages of baseline reward threshold scores were calculated by expressing the absolute threshold scores as a percentage of the scores obtained during baseline. […] Response latency data were analyzed in the same manner as the threshold data. […]

The test system of the next assay is male C57BL/6J mice. Nature of the assay: Intracranial self-stimulation (ICSS) thresholds in mice with saline or nicotine osmotic minipumps. Type of assay: in vivo. To be noted: SR9883 10 mg kg^−1 IP. The source says:
Mice were anesthetized with a mixture of isoflurane (1–3%) and oxygen vapor then positioned in a stereotaxic frame in the flat-skull position (Kopf Instruments) ([Fowler et al., 2013]; [Johnson et al., 2008]). A stainless-steel bipolar electrode (Plastics One) was implanted into the lateral hypothalamus according to the following stereotaxic coordinates: Anterior/Posterior: −0.5 mm from bregma; […] Dorsal/Ventral: −5.0 mm from brain surface ([Fowler et al., 2013]; [Johnson et al., 2008]; [Paxinos and Franklin, 2001]). Mice were permitted 72 h to recover from surgery prior to training in the ICSS procedure. Mice were permitted to respond for intracranial electrical stimulation according to a modification of the discrete-trial current-threshold procedure developed by Kornetsky and colleagues ([Gill et al., 2004]), as previously described ([Fowler et al., 2013]; [Johnson et al., 2008]). […] The frequency of the stimulation was selected for each mouse so that current-intensity thresholds were within 25 to 400 μA, permitting threshold elevations and reductions to be reliably detected. This frequency for each mouse was held constant throughout the experiment. […] The time between the onset of the non-contingent stimulus and a positive response was recorded as the response latency. […] Effects of intraperitoneal injections of SR9883 on ICSS thresholds were assessed >7 days after minipump implantation. Concentration-response curves of SR9883 actions in nAChR-expressing HEK cells and oocytes were fitted to the Hill equation using a nonlinear least squares curve fit method and efficacy and potency values were calculated as previously described ([Wang et al., 2015]). […] For the ICSS threshold experiment, percentages of baseline reward threshold scores were calculated by expressing the absolute threshold scores as a percentage of the scores obtained during baseline. […] Response latency data were analyzed in the same manner as the threshold data. […] Effects of SR9883 on responding for food pellets in rats was analyzed by a two-tailed paired t test. […]

In assay [2] the target is T2, human (α3)2(β2)2α5 nAChRs (Homo sapiens, UniProt P17787+P30532+P32297).
T2 construct: expressed in transfected cells
T2 sequence (P32297 32-505): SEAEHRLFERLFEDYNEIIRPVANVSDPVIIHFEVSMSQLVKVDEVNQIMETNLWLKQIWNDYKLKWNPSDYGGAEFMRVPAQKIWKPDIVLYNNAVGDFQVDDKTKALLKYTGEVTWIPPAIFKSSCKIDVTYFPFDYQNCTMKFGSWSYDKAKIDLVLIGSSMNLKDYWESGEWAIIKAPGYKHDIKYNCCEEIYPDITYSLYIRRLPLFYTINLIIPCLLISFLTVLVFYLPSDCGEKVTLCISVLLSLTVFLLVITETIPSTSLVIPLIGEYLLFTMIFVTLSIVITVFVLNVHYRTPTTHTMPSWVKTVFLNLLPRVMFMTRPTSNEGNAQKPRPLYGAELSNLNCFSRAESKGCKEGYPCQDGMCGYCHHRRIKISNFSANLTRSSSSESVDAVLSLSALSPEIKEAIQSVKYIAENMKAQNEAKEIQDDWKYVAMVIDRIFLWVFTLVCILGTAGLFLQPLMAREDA
T2 sequence (P17787 26-502): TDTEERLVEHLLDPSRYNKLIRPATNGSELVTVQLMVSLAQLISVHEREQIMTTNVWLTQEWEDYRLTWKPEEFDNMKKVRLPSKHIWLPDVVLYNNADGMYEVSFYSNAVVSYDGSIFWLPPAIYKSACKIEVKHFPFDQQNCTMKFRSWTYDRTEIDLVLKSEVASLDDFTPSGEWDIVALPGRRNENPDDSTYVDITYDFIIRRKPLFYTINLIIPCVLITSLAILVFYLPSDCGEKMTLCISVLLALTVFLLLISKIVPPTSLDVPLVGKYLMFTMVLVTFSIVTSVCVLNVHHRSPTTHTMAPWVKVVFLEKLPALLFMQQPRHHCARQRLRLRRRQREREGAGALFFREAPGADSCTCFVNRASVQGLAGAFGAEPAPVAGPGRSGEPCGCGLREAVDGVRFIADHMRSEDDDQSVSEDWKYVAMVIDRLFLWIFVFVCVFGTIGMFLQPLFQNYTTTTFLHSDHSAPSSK
T2 sequence (P30532 23-468): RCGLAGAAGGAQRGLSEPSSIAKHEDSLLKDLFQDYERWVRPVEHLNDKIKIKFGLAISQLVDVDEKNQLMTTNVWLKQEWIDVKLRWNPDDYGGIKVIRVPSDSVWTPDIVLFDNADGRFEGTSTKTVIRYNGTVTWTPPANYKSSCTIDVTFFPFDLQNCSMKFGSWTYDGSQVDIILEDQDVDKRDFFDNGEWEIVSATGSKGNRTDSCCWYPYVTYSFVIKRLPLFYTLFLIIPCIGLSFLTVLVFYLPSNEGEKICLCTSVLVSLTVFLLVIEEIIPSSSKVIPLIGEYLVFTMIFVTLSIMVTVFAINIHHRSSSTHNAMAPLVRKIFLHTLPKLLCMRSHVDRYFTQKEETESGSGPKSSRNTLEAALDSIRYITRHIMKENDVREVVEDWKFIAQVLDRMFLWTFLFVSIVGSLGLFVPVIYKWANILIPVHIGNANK
Nature of the assay: FLEXstation membrane potential assay in HEK cells stably expressing (α3)2(β2)2α5 nAChRs. Type of assay: cell-based. Conditions: SR9883 0.0005–10 μM.
Description: as §1, §2

T1 sequence (P32297 32-505): as the sequence (P32297 32-505) above
T1 sequence (P30926 22-498): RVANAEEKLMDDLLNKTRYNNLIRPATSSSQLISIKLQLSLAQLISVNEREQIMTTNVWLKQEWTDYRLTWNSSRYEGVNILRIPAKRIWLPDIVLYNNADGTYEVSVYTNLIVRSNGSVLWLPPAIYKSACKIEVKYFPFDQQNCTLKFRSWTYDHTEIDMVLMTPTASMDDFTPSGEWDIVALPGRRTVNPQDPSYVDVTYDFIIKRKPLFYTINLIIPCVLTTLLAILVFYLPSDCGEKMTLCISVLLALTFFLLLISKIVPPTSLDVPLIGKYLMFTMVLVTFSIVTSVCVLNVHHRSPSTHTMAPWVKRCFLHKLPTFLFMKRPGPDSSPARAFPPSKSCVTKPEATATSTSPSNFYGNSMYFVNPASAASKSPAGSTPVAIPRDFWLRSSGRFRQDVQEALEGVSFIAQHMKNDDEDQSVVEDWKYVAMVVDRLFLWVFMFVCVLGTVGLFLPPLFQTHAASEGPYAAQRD
T1 sequence (P30532 23-468): as the sequence (P30532 23-468) above

As for `N#Cc1cccc(-n2nnc(-c3cccnc3)n2)c1` [SR9883, 3-(5-(pyridin-3-yl)-2H-tetrazol-2-yl)benzonitrile], the “EC50 (enhancement of response to EC20-30 nicotine)” value in assay [1] and in assay [2] was “no effect; also recorded: No enhancement” in each case. Also, the ICSS response latencies result in the assay on male C57BL/6J mice (minipumps delivering either saline or nicotine) was “had no effect”. Moreover, the ICSS thresholds entry with male C57BL/6J mice (nicotine-delivering osmotic minipumps (24 mg kg^−1 per day), p = 0.0278 vs vehicle) is given as “elevated”; in the assay with male C57BL/6J mice (saline-delivering osmotic minipumps), “had no effect”.
